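Protocol summary: plate cells (96-well), add compound at 5 concentrations, incubate 48 h, interpolate endpoints linearly. GI50 marks 50% less growth. The concentration for full growth arrest is given as TGI.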
What was measured:
Assay in all cases: DTP human tumour cell line panel, 48 h
[1] = tested on: SNB-19 CNS
[2] = tested on: OVCAR-8 ovarian
[3] = tested on: NCI-H522 lung
[4] = tested on: SF-539 CNS
[5] = tested on: HL-60(TB) leukemia
[6] = tested on: OVCAR-5 ovarian
[7] = tested on: NCI-H460 lung
[8] = tested on: UO-31 renal
[9] = tested on: COLO 205 colon
[10] = tested on: SNB-75 CNS
[11] = tested on: HT29 colon
[12] = tested on: ACHN renal
[13] = tested on: LOX IMVI melanoma
[14] = tested on: NCI-H226 lung
[15] = tested on: A498 renal
[16] = tested on: SK-OV-3 ovarian
[17] = tested on: UACC-62 melanoma
[18] = tested on: RPMI-8226 leukemia
[19] = tested on: M14 melanoma
[20] = tested on: SK-MEL-28 melanoma
[21] = tested on: SK-MEL-2 melanoma
[22] = tested on: DU-145 prostate
[23] = tested on: CAKI-1 renal
[24] = tested on: SF-295 CNS
[25] = tested on: OVCAR-3 ovarian
[26] = tested on: NCI/ADR-RES ovarian
[27] = tested on: MDA-MB-435
[28] = tested on: MDA-MB-231 breast
[29] = tested on: MOLT-4 leukemia
[30] = tested on: HOP-92 NSCLC
[31] = tested on: U251 CNS
[32] = tested on: MCF7 breast
[33] = tested on: SR leukemia
[34] = tested on: KM12 colon
[35] = tested on: NCI-H23 lung
[36] = tested on: RXF 393 renal
[37] = tested on: 786-0 renal
[38] = tested on: HCT-15 colon
[39] = tested on: SW-620 colon
[40] = tested on: SN12C renal
[41] = tested on: OVCAR-4 ovarian
[42] = tested on: TK-10 renal
[43] = tested on: IGROV1 ovarian
[44] = tested on: K-562 leukemia
[45] = tested on: CCRF-CEM leukemia
[46] = tested on: A549 NSCLC
[47] = tested on: PC-3 prostate
[48] = tested on: HCC-2998 colon
[49] = tested on: HCT-116 colon
[50] = tested on: EKVX NSCLC
[51] = tested on: BT-549 breast
[52] = tested on: T-47D breast
[53] = tested on: UACC-257 melanoma
[54] = tested on: HOP-62 NSCLC
[55] = tested on: HS 578T breast
[56] = tested on: SK-MEL-5 melanoma
[57] = tested on: SF-268 CNS
[58] = tested on: MALME-3M melanoma

## NC(=O)c1c(Br)n(C2OC(CO)C(O)C2O)c2ncnc(N)c12 (stereo unspecified)
[1]
  GI50: 5.16 µM
  TGI: 59.8 µM
[2]
  GI50: 0.763 µM
  TGI: 12.3 µM
[3]
  GI50: 2.54 µM
  TGI: 11 µM
[4]
  GI50: 2.43 µM
  TGI: 8.73 µM
[5]
  GI50: 0.702 µM
  TGI: 4.11 µM
[6]
  GI50: 1.39 µM
  TGI: 45.5 µM
[7]
  GI50: 1.8 µM
  TGI: 12.5 µM
[8]
  GI50: 2.16 µM
  TGI: 13.6 µM
[9]
  GI50: 1.45 µM
  TGI: 6.07 µM
[10]
  GI50: 1.92 µM
  TGI: 18 µM
[11]
  GI50: 1.03 µM
  TGI: 32 µM
[12]
  GI50: 0.749 µM
  TGI: 10.4 µM
[13]
  GI50: 0.684 µM
  TGI: 6.09 µM
[14]
  GI50: 4.78 µM
  TGI: 57.6 µM
[15]
  GI50: 3.09 µM
  TGI: 15.6 µM
[16]
  GI50: 1.05 µM
  TGI: 9.95 µM
[17]
  GI50: 1.63 µM
  TGI: 3.83 µM
[18]
  GI50: 1.87 µM
  TGI: 7.51 µM
[19]
  GI50: 1.19 µM
  TGI: 8.76 µM
[20]
  GI50: 3.02 µM
  TGI: 13.8 µM
[21]
  GI50: 1.82 µM
  TGI: 5.62 µM
[22]
  GI50: 0.544 µM
  TGI: 8.86 µM
[23]
  GI50: 0.369 µM
  TGI: 2.43 µM
[24]
  GI50: 2.78 µM
  TGI: 18.7 µM
[25]
  GI50: 1.24 µM
  TGI: 5.59 µM
[26]
  GI50: 1.34 µM
  TGI: 12.5 µM
[27]
  GI50: 1.73 µM
  TGI: 7.68 µM
[28]
  GI50: 3.55 µM
  TGI: 29.1 µM
[29]
  GI50: 0.36 µM
  TGI: 3.46 µM
[30]
  GI50: 0.45 µM
  TGI: 7.08 µM
[31]
  GI50: 2.92 µM
  TGI: > 86.4 µM
[32]
  GI50: 0.246 µM
  TGI: 2.72 µM
[33]
  GI50: 1.11 µM
  TGI: 4.9 µM
[34]
  GI50: 1.91 µM
  TGI: 12.3 µM
[35]
  GI50: 2.15 µM
  TGI: 13 µM
[36]
  GI50: 1.37 µM
  TGI: 12.9 µM
[37]
  GI50: 3.04 µM
  TGI: 41.9 µM
[38]
  GI50: 0.427 µM
  TGI: 7.03 µM
[39]
  GI50: 0.545 µM
  TGI: 9.87 µM
[40]
  GI50: 1.61 µM
  TGI: 12.9 µM
[41]
  GI50: 1.14 µM
  TGI: 15.3 µM
[42]
  GI50: 0.839 µM
  TGI: 13.7 µM
[43]
  GI50: 0.609 µM
  TGI: 3.95 µM
[44]
  GI50: 1.43 µM
  TGI: > 60.4 µM
[45]
  GI50: 0.8 µM
  TGI: 6.37 µM
[46]
  GI50: 1.97 µM
  TGI: 21.4 µM
[47]
  GI50: 0.593 µM
  TGI: 7.57 µM
[48]
  GI50: 1.71 µM
  TGI: 13.2 µM
[49]
  GI50: 0.71 µM
  TGI: > 53.4 µM
[50]
  GI50: 4.31 µM
  TGI: 59.8 µM
[51]
  GI50: 1.08 µM
  TGI: 11.2 µM
[52]
  GI50: 0.132 µM
  TGI: 2.88 µM
[53]
  GI50: 2.99 µM
  TGI: 18.4 µM
[54]
  GI50: 2.86 µM
  TGI: 25.3 µM
[55]
  GI50: 1.48 µM
  TGI: 9.36 µM
[56]
  GI50: 2.65 µM
  TGI: 9.85 µM
[57]
  GI50: 2.49 µM
  TGI: 13.4 µM
[58]
  GI50: 1.47 µM
  TGI: 6.34 µM

— PubChem BioAssay (NCI)
